Assay results: patent publication US20050000824A1, “Phosphorus-borates with low melting points” (priority 2001, published 2005)

Key:
Type in all cases: physicochemical
[1] = Determination of solubility (qualitative, mixing ionic liquid with solvent)
Description: Solubility was determined only qualitatively by mixing approximately 0.5 ml of the ionic liquid with the same amount of organic solvent and shaking. All samples were checked a second time after several hours to ensure, that no slow phase separation had occured.

[2] = Determination of viscosity (Brookfield Cone and Plate Viscometer)
Description: Viscosity was measured using an LVDV-II Brookfield Cone and Plate Viscometer (1% accuracy, 0.2 repeatability). The sample cup of the viscometer was fitted with luer and purge fittings, so that a positive current of dry dinitrogen was maintained at all times during the measurements, thus avoiding absorption of atmospheric moisture. The sample cup was jacketed with a circulating water bath that was controlled by a circulator bath Grant LTD 6G (+0.1° C. accuracy).

[3] = Thermal decomposition observed with melting point determination; conditions: thermal stability

| Structure (SMILES) | Solubility ([1]; solvent acetonitrile) | Solubility ([1]; solvent hexane) | Viscosity ([2]; 5 ° C.) | Viscosity ([2]; 10 ° C.) | Viscosity ([2]; 15 ° C.) | Viscosity ([2]; 20 ° C.) | Viscosity ([2]; 25 ° C.) | Viscosity ([2]; 30 ° C.) | Viscosity ([2]; 35 ° C.) | Viscosity ([2]; 40 ° C.) | Viscosity ([2]; 45 ° C.) | Viscosity ([2]; 50 ° C.) | Viscosity ([2]; 55 ° C.) | Viscosity ([2]; 60 ° C.) | Viscosity ([2]; 65 ° C.) | Viscosity ([2]; 70 ° C.) | Viscosity ([2]; 75 ° C.) | Viscosity ([2]; 80 ° C.) | Viscosity ([2]; 85 ° C.) | Viscosity ([2]; 90 ° C.) | further results |
| --- | --- | --- | --- | --- | --- | --- | --- | --- | --- | --- | --- | --- | --- | --- | --- | --- | --- | --- | --- | --- | --- |
| CCCCCCCCCCCCCC[P+](CCCCCC)(CCCCCC)CCCCCC.O=C1O[B-]2(OC(=O)c3ccccc3O2)Oc2ccccc21 [[R4P] [BSB], [(C6)3P(C14)][BSB]] | Y* | N** | 7334 cP | 4241 cP | 2663 cP | 1730 cP | 1164 cP | 801.4 cP | 566.3 cP | 407.0 cP | 300.4 cP | 229.6 cP | 171.4 cP | 132.6 cP | 106.3 cP | 85.1 cP | 68.4 cP | 56.4 cP | 47.2 cP | 39.9 cP | Viscosity ([2]; 95 ° C.): 34.1 cP |
| CCCCCCCCCCCCCC[P+](CCCCCC)(CCCCCC)CCCCCC.c1ccc2c(c1)O[B-]1(O2)Oc2ccccc2O1 [[R4P] [BBB], [(C6)3P(C14)][BBB]] | Y* | N** | – | – | 6184 cP | 3735 cP | 2439 cP | 1593 cP | 1087 cP | 739.8 cP | 538.1 cP | 386.7 cP | 288.3 cP | 217.2 cP | 168.2 cP | 126.3 cP | 100.2 cP | 81.0 cP | 65.2 cP | 50.2 cP | Solubility ([1]; solvent iso-propyl alcohol): Y*; Viscosity ([2]; 95 ° C.): 40.91 cP; decomposition (temperature) [3]: above 200 °C |
| CCCCCCCCCCCCCC[P+](CCCCCC)(CCCCCC)CCCCCC.c1ccc2c(c1)O[B-]1(Oc3ccccc3-2)Oc2ccccc2-c2ccccc2O1 [[R4P] [BBPB], [(C6)3P(C14)][BBPB]] | Y* | – | 95020 cP | 59233 cP | 33737 cP | 20660 cP | 12813 cP | 8245 cP | 5453 cP | 3675 cP | 2703 cP | 1953 cP | 1393 cP | 1022 cP | 759.0 cP | 550.7 cP | 333.9 cP | 209.2 cP | 173.0 cP | 177.8 cP | Solubility ([1]; solvent iso-propyl alcohol): Y* |
